The results in this text go back to ChEMBL document CHEMBL1135630 (J Med Chem, 2002).

The Ki is a measure of affinity in units of concentration, obtained from inhibition or displacement. The ED50 is the dose at which the effect has come halfway, by size or by number of responders.

Each structure is given as a SMILES string.

Test [1] is described as follows: Inhibition of [3H]- epibatidine binding at the Nicotinic acetylcholine receptor alpha beta (nAChR) in male rat cerebral cortex. It is filed as tissue-based.
Test [2] is filed under the species Rattus norvegicus. The test is described as follows: Agonist activity against alpha beta Nicotinic acetylcholine receptor (nAChR) in male rat cerebral cortex using antinociceptive assay in hot plate test. The test is classed as functional. (Hot-plate and tail-flick tests time the reaction to a heat stimulus.)
For test [3], the species on record is Rattus norvegicus. The experiment in a line: Agonist activity against alpha beta Nicotinic acetylcholine receptor (nAChR) in male rat cerebral cortex using antinociceptive assay in tail flick test. It is filed as functional.
Test [4] is filed under the species Rattus norvegicus. The test is described as follows: Agonist activity against alpha beta Nicotinic acetylcholine receptor (nAChR) in male rat cerebral cortex using antinociceptive assay in hypothermia test. It is filed as functional.
Test [5] is filed under the species Rattus norvegicus. The experiment in a line: Agonist activity against alpha beta Nicotinic acetylcholine receptor (nAChR) in male rat cerebral cortex in antinociceptive assay in tail flick test. It is filed as functional.
The species entered for test [6] is Rattus norvegicus. The experiment in a line: Agonist activity against alpha beta Nicotinic acetylcholine receptor (nAChR) in male rat cerebral cortex in antinociceptive assay in hypothermia test. It is filed as functional.
For test [7], the target named is Neuronal acetylcholine receptor subunit alpha-7 (Rattus norvegicus, UniProt Q05941). The experiment in a line: Inhibition of [125I]- iodo-MLA binding at the Nicotinic acetylcholine receptor alpha-7 (nAChR) in male rat cerebral cortex. The test is classed as tissue-based.
The species named for test [8] is Rattus norvegicus. The test is described as follows: Agonist activity against alpha beta Nicotinic acetylcholine receptor (nAChR) in male rat cerebral cortex in antinociceptive assay in hot plate test. The test is classed as functional.
For test [9], the system named is Rattus norvegicus. The test is described as follows: Antagonist activity after subcutaneously administration of nicotine at a dose of 2.5 mg/kg in tail-flick test at a concentration of 0.05 mg/kg. It is filed as functional. Also on record: scale not given: the % may be the effect or the level left.
The test system of test [10] is Rattus norvegicus. The test is described as follows: Antagonist activity after subcutaneously administration of nicotine at a dose of 2.5 mg/kg in hotplate test at a concentration of 0.05 mg/kg. It is filed as functional. Also on record: scale not given: the % may be the effect or the level left.
Test [11] has as its system Rattus norvegicus. The test is described as follows: Antagonist activity after subcutaneously administration of nicotine at a dose of 2.5 mg/kg in hot- plate test at a concentration of 0.01 mg/kg. Details: scale not given: the % may be the effect or the level left. The test is classed as functional.
Test [12] deals with Rattus norvegicus. The experiment in a line: Antagonist activity after subcutaneously administration of nicotine at a dose of 2.5 mg/kg in tail-flick test at a concentration of 0.01 mg/kg. It is filed as functional. Details: scale not given: the % may be the effect or the level left.
Test [13] deals with Rattus norvegicus. The test is described as follows: Antagonist activity after subcutaneously administration of nicotine at a dose of 2.5 mg/kg in tail-flick test (value in parentheses is 95% confidence limits). Conditions: route subcutaneous. It is filed as functional.
For test [14], the system named is Rattus norvegicus. The experiment in a line: Antagonist activity after subcutaneously administration of nicotine at a dose of 2.5 mg/kg in hot- plate test, the values expressed as 95% confidence limit (value in parentheses is 95% confidence limits). Conditions: route subcutaneous. The test is classed as functional.
Test [15] concerns Rattus norvegicus. The test is described as follows: Antagonist activity after subcutaneously administration of nicotine at a dose of 2.5 mg/kg in hot- plate test at a concentration of 0.05 mg/kg. It is filed as functional. Details: scale not given: the % may be the effect or the level left.
The target in test [16] is T1, Neuronal acetylcholine receptor (Rattus norvegicus) (UniProt P04757+P09483+P12389+P12390+P12392+P43144+Q9JLB5+P12391+P43143+P20420+Q05941). The experiment in a line: Agonist activity against alpha beta Nicotinic acetylcholine receptor (nAChR) in male rat cerebral cortex in antinociceptive assay in tail flick test at a dose of 10 mg/kg. It is filed as functional, organism-based. Details: dose 10 mg/kg.

Test [17] addresses T1, Neuronal acetylcholine receptor (Rattus norvegicus). The experiment in a line: Agonist activity against alpha beta Nicotinic acetylcholine receptor (nAChR) in male rat cerebral cortex in antinociceptive assay in hypothermia test at a dose of 10 mg/kg. Details: dose 10 mg/kg. The test is classed as functional, organism-based.
The target is the same in test [18]. The experiment in a line: Agonist activity against alpha beta Nicotinic acetylcholine receptor (nAChR) in male rat cerebral cortex in antinociceptive assay in hot plate test at a dose of 10 mg/kg. It is filed as functional, organism-based. Also on record: dose 10 mg/kg.

Neuronal acetylcholine receptor subunit alpha-7, sequence (Q05941 whole entry): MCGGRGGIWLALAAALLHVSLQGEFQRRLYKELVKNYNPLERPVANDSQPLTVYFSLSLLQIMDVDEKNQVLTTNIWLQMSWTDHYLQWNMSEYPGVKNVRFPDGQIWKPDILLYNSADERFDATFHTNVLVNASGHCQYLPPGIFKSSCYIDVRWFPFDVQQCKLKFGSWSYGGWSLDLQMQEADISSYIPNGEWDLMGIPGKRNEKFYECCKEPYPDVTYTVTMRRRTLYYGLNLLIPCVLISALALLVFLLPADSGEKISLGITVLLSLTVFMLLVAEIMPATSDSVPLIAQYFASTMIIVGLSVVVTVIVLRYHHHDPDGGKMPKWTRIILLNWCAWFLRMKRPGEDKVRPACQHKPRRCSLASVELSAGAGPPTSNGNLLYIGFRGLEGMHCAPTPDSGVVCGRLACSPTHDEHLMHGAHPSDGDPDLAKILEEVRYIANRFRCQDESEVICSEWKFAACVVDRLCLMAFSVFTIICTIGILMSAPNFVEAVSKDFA

`Fc1cc([C@H]2CC3CCC2N3)cnc1F` (stereo partly drawn): in test [1], the inhibition constant (Ki) turned out to be 0.055 nM.

As for `Nc1ncc([C@H]2CC3CCC2N3)cc1Br` (stereo partly drawn), the 50% effective dose (ED50) is 50 µg/kg in the test filed under Rattus norvegicus [2], 70 µg/kg in the test listed under Rattus norvegicus [3] and 75 µg/kg in the test listed under Rattus norvegicus [4]. The Ki in test [1] stood at 0.29 nM.

For `Oc1ccc([C@H]2CC3CCC2N3)cn1` (stereo partly drawn), the ED50 in the test filed under Rattus norvegicus [5] came to 1500 µg/kg; in the test filed under Rattus norvegicus [6], 1200 µg/kg; in the test listed under Rattus norvegicus [8], 500 µg/kg. The results for the Ki in test [7] and in [1] were 675 nM and 1.5 nM, respectively.

As to `Clc1ncc([C@H]2CC3CCC2N3)cc1Br` (stereo partly drawn), the 50% effective dose (ED50) was found to be 20 µg/kg in the test listed under Rattus norvegicus [2], 30 µg/kg in the test filed under Rattus norvegicus [3] and 40 µg/kg in the test filed under Rattus norvegicus [4]. In [1], this compound came in with a Ki of 0.013 nM.

Take `Brc1cc([C@H]2CC3CCC2N3)cnc1I` (stereo partly drawn): the results for the median effective dose (ED50) in the test listed under Rattus norvegicus [2], in the test filed under Rattus norvegicus [3] and in the test filed under Rattus norvegicus [4] were 240 µg/kg, 270 µg/kg and 40 µg/kg, respectively. For the same compound, the Effect with Rattus norvegicus [9] is 4%; with Rattus norvegicus [10], 0%. In addition, the affinity in test [1] corresponds to a Ki of 0.027 nM.

Turning to `Clc1ncc(C2CC3CCC2N3)cc1I` (stereo not drawn), the ED50 was 140 µg/kg in the test filed under Rattus norvegicus [2], 240 µg/kg in the test listed under Rattus norvegicus [3] and 27 µg/kg in the test filed under Rattus norvegicus [4]. The Effect with Rattus norvegicus [11] was 0%; in the test on Rattus norvegicus [12], 4%. For the same compound, in test [1], the inhibition constant (Ki) was found to be 0.008 nM.

Regarding `Nc1ccc([C@H]2CC3CCC2N3)cn1` (stereo partly drawn), the affinity in test [1], expressed as Ki, was 1.3 nM.

In the case of `Nc1cc([C@H]2CC3CCC2N3)cnc1Cl` (stereo partly drawn), the AD50 came to 0.03 µg/kg in the test on Rattus norvegicus [13] and 0.6 µg/kg in the test on Rattus norvegicus [14]. The figures for the 50% effective dose (ED50) in the test listed under Rattus norvegicus [2], in the test listed under Rattus norvegicus [3] and in the test listed under Rattus norvegicus [4] were 20 µg/kg, 20 µg/kg and 17 µg/kg, respectively. Moreover, the Ki came to 13.9 nM in test [7] and 0.001 nM in test [1].

In the case of `Clc1ccc(C2CC3CCC2N3)cn1` (racemic) [EPIBATIDINE], the figures for the ED50 in the test listed under Rattus norvegicus [5], in the test filed under Rattus norvegicus [6] and in the test listed under Rattus norvegicus [8] were 6 µg/kg, 4 µg/kg and 4 µg/kg, respectively.

For `Nc1ncc([C@H]2CC3CCC2N3)cc1I` (stereo partly drawn), the ED50 came to 500 µg/kg in the test listed under Rattus norvegicus [2], 650 µg/kg in the test listed under Rattus norvegicus [3] and 300 µg/kg in the test listed under Rattus norvegicus [4]. Moreover, the inhibition constant (Ki) in test [7] turned out to be 34.1 nM; in [1] it was 0.52 nM.

In the case of `Fc1ncc([C@H]2CC3CCC2N3)cc1Br` (stereo partly drawn), the ED50 in the test filed under Rattus norvegicus [2] was 1200 µg/kg; in the test listed under Rattus norvegicus [3], 700 µg/kg; in the test listed under Rattus norvegicus [4] it was 10 µg/kg. Moreover, the Effect in the test with Rattus norvegicus [9] and with Rattus norvegicus [15] was 0% each time. For the same compound, the inhibition constant Ki in test [1] amounted to 0.071 nM.

On to `Ic1ccc(C2CC3CCC2N3)cn1` (stereo not drawn), for which the affinity in test [1], expressed as Ki, was 0.07 nM.

As for `Brc1cc([C@H]2CC3CCC2N3)cnc1Br` (stereo partly drawn), the Ki in [1] is 0.015 nM.

Regarding `Fc1cc(C2CC3CCC2N3)cnc1Cl` (stereo not drawn), the 50% effective dose (ED50) in the test listed under Rattus norvegicus [2] amounted to 9 µg/kg; in the test listed under Rattus norvegicus [3] it was 8 µg/kg; in the test filed under Rattus norvegicus [4], 6 µg/kg. Further, the Ki in [7] was 3.43 nM; in [1] it was 0.025 nM.

With `Oc1ncc([C@H]2CC3CCC2N3)cc1Br` (stereo partly drawn), the Effect was determined as 1% in [16], 0% in [17] and 9% in test [18]. The affinity in test [1], expressed as Ki, was 14.4 nM.

Consider `Fc1ncc([C@H]2CC3CCC2N3)cc1I` (stereo partly drawn), for which the results for the 50% effective dose (ED50) in the test filed under Rattus norvegicus [2], in the test filed under Rattus norvegicus [3] and in the test listed under Rattus norvegicus [4] were 900 µg/kg, 700 µg/kg and 300 µg/kg, respectively. The Effect with Rattus norvegicus [9] and in the test with Rattus norvegicus [15] was 0% in each case. In [1], this compound registered an inhibition constant (Ki) of 0.051 nM.

The compound `Fc1ccc(C2CC3CCC2N3)cn1` (stereo not drawn) had a Ki in test [1] of 0.027 nM.

On to `Clc1cc([C@H]2CC3CCC2N3)cnc1Cl` (stereo partly drawn), for which the median effective dose (ED50) in the test filed under Rattus norvegicus [2] came to 30 µg/kg; in the test listed under Rattus norvegicus [3], 50 µg/kg; in the test filed under Rattus norvegicus [4], 20 µg/kg. In addition, the Ki in [7] came to 1.12 nM; in test [1], 0.014 nM.

As for `Brc1ccc([C@H]2CC3CCC2N3)cn1` (stereo partly drawn), the affinity in test [1] corresponds to a Ki of 0.023 nM.

Take `Fc1ncc([C@H]2CC3CCC2N3)cc1Cl` (stereo partly drawn): the affinity in test [1] corresponds to a Ki of 0.02 nM.
